For eight compounds, inhibition of growth results are on record in ChEMBL document CHEMBL3045466, “Novel 2H-[1,2,4]thiadiazolo[2,3-a]pyrimidine derivatives bearing chiral S()-2-(4-chlorophenyl)-3-methylbutyric acid moiety: Design, synthesis and herbicidal activity” (2010).

Holding throughout (format): functional
Holding throughout (conditions): 144 h, read-out: GI

Assay [1] deals with Chenopodium ficifolium. The experiment in a line: Herbicidal activity against Chenopodium ficifolium assessed as inhibition of root growth at 100 ppm after 6 days by flat-utensil method relative to control.
Assay [2] relates to Sorghum bicolor. The experiment in a line: Herbicidal activity against Sorghum bicolor assessed as inhibition of root growth at 100 ppm after 6 days by flat-utensil method relative to control.
In assay [3] the test system is Amaranthus retroflexus. In words: Herbicidal activity against Amaranthus retroflexus assessed as inhibition of root growth at 100 ppm after 6 days by flat-utensil method relative to control.
Assay [4] deals with Digitaria sanguinalis. In words: Herbicidal activity against Digitaria sanguinalis (hairy crabgrass) assessed as inhibition of root growth at 50 ppm after 6 days by flat-utensil method relative to control.
Assay [5] deals with Digitaria sanguinalis. The experiment in a line: Herbicidal activity against Digitaria sanguinalis (hairy crabgrass) assessed as inhibition of stalk growth at 50 ppm after 6 days by flat-utensil method relative to control.
Assay [6] concerns Chenopodium ficifolium. In words: Herbicidal activity against Chenopodium ficifolium assessed as inhibition of stalk growth at 50 ppm after 6 days by flat-utensil method relative to control.
For assay [7], the system named is Amaranthus retroflexus. In words: Herbicidal activity against Amaranthus retroflexus assessed as inhibition of stalk growth at 50 ppm after 6 days by flat-utensil method relative to control.
For assay [8], the system named is Chenopodium ficifolium. The experiment in a line: Herbicidal activity against Chenopodium ficifolium assessed as inhibition of root growth at 50 ppm after 6 days by flat-utensil method relative to control.
For assay [9], the system named is Echinochloa crus-galli. The experiment in a line: Herbicidal activity against Echinochloa crus-galli (barnyard grass) assessed as inhibition of stalk growth at 50 ppm after 6 days by flat-utensil method relative to control.
The test system of assay [10] is Chenopodium ficifolium. The experiment in a line: Herbicidal activity against Chenopodium ficifolium assessed as inhibition of stalk growth at 100 ppm after 6 days by flat-utensil method relative to control.
Assay [11] deals with Echinochloa crus-galli. The experiment in a line: Herbicidal activity against Echinochloa crus-galli (barnyard grass) assessed as inhibition of root growth at 50 ppm after 6 days by flat-utensil method relative to control.
For assay [12], the system named is Sorghum bicolor. In words: Herbicidal activity against Sorghum bicolor assessed as inhibition of stalk growth at 50 ppm after 6 days by flat-utensil method relative to control.
Assay [13] concerns Amaranthus retroflexus. In words: Herbicidal activity against Amaranthus retroflexus assessed as inhibition of stalk growth at 100 ppm after 6 days by flat-utensil method relative to control.
Assay [14] has as its system Amaranthus retroflexus. The experiment in a line: Herbicidal activity against Amaranthus retroflexus assessed as inhibition of root growth at 50 ppm after 6 days by flat-utensil method relative to control.
Assay [15] relates to Echinochloa crus-galli. In words: Herbicidal activity against Echinochloa crus-galli (barnyard grass) assessed as inhibition of root growth at 100 ppm after 6 days by flat-utensil method relative to control.
In assay [16] the test system is Digitaria sanguinalis. In words: Herbicidal activity against Digitaria sanguinalis (hairy crabgrass) assessed as inhibition of root growth at 100 ppm after 6 days by flat-utensil method relative to control.
The subject of assay [17] is Echinochloa crus-galli. The experiment in a line: Herbicidal activity against Echinochloa crus-galli (barnyard grass) assessed as inhibition of stalk growth at 100 ppm after 6 days by flat-utensil method relative to control.
The test system of assay [18] is Digitaria sanguinalis. The experiment in a line: Herbicidal activity against Digitaria sanguinalis (hairy crabgrass) assessed as inhibition of stalk growth at 100 ppm after 6 days by flat-utensil method relative to control.
For assay [19], the system named is Sorghum bicolor. The experiment in a line: Herbicidal activity against Sorghum bicolor assessed as inhibition of root growth at 50 ppm after 6 days by flat-utensil method relative to control.
In assay [20] the test system is Sorghum bicolor. The experiment in a line: Herbicidal activity against Sorghum bicolor assessed as inhibition of stalk growth at 100 ppm after 6 days by flat-utensil method relative to control.

For `Cc1cc(C)n2s/c(=N\C(=O)[C@H](c3ccc(Cl)cc3)C(C)C)nc2n1`, the inhibition of growth at 100 ppm in the assay on Chenopodium ficifolium [1] is 85%; in the assay on Sorghum bicolor [2] it was 20%; with Amaranthus retroflexus [3], 100%; in the assay on Chenopodium ficifolium [10], 80%; with Amaranthus retroflexus [13], 95%; in the assay on Echinochloa crus-galli [15], 30%. Besides, the inhibition of growth at 100 ppm with Digitaria sanguinalis [16] came to 80%; in the assay with Echinochloa crus-galli [17], 80%; in the assay on Digitaria sanguinalis [18], 90%; in the assay on Sorghum bicolor [20] it was 25%. The inhibition of growth at 50 ppm with Digitaria sanguinalis [4] worked out at 45%; in the assay on Digitaria sanguinalis [5], 55%; in the assay on Chenopodium ficifolium [6], 50%; with Amaranthus retroflexus [7] it was 50%; in the assay on Chenopodium ficifolium [8] it was 50%; with Echinochloa crus-galli [9], 50%. Moreover, the inhibition of growth at 50 ppm in the assay with Echinochloa crus-galli [11] is 30%; with Sorghum bicolor [12], 20%; with Amaranthus retroflexus [14] it was 50%; in the assay with Sorghum bicolor [19], 20%.

For `COc1cc(OC)n2s/c(=N\C(=O)[C@H](c3ccc(Cl)cc3)C(C)C)nc2n1`, the inhibition of growth at 100 ppm came to 90% in the assay with Chenopodium ficifolium [1]; 50% in the assay on Sorghum bicolor [2]; 95% in the assay with Amaranthus retroflexus [3]; 90% in the assay on Chenopodium ficifolium [10]; 80% with Amaranthus retroflexus [13]; 20% in the assay on Echinochloa crus-galli [15]. Also, the inhibition of growth at 100 ppm is 80% in the assay on Digitaria sanguinalis [16], 70% in the assay with Echinochloa crus-galli [17], 90% with Digitaria sanguinalis [18] and 40% with Sorghum bicolor [20]. The inhibition of growth at 50 ppm came to 40% in the assay with Digitaria sanguinalis [4]; 50% in the assay on Digitaria sanguinalis [5]; 90% with Chenopodium ficifolium [6]; 45% in the assay with Amaranthus retroflexus [7]; 90% in the assay on Chenopodium ficifolium [8]; 40% in the assay on Echinochloa crus-galli [9]. Further, the inhibition of growth at 50 ppm in the assay on Echinochloa crus-galli [11] came out at 20%; in the assay on Sorghum bicolor [12], 25%; in the assay on Amaranthus retroflexus [14], 40%; in the assay on Sorghum bicolor [19], 20%.

Regarding `CC(C)[C@H](C(=O)/N=c1/nc2nc(Cl)cc(Cl)n2s1)c1ccc(Cl)cc1`, the inhibition of growth at 100 ppm with Chenopodium ficifolium [1] was 60%; in the assay on Sorghum bicolor [2], 20%; in the assay on Amaranthus retroflexus [3], 80%; in the assay on Chenopodium ficifolium [10] it was 40%; with Amaranthus retroflexus [13] it was 75%; in the assay with Echinochloa crus-galli [15], 50%. For the same compound, the inhibition of growth at 100 ppm turned out to be 0% in the assay with Digitaria sanguinalis [16], 75% in the assay with Echinochloa crus-galli [17], 10% in the assay with Digitaria sanguinalis [18] and 30% in the assay with Sorghum bicolor [20]. Moreover, the inhibition of growth at 50 ppm in the assay with Digitaria sanguinalis [4] was 0%; in the assay with Digitaria sanguinalis [5] it was 0%; in the assay on Chenopodium ficifolium [6], 20%; with Amaranthus retroflexus [7], 50%; in the assay on Chenopodium ficifolium [8] it was 30%; with Echinochloa crus-galli [9], 40%. In addition, the inhibition of growth at 50 ppm in the assay with Echinochloa crus-galli [11] was found to be 30%; with Sorghum bicolor [12] it was 20%; with Amaranthus retroflexus [14] it was 45%; with Sorghum bicolor [19], 20%.

Regarding `COc1cc(Cl)n2s/c(=N\C(=O)[C@H](c3ccc(Cl)cc3)C(C)C)nc2n1`, the inhibition of growth at 100 ppm was 10% in the assay with Chenopodium ficifolium [1]; 80% in the assay with Sorghum bicolor [2]; 30% with Amaranthus retroflexus [3]; 20% with Chenopodium ficifolium [10]; 20% in the assay on Amaranthus retroflexus [13]; 100% in the assay with Echinochloa crus-galli [15]. Moreover, the inhibition of growth at 100 ppm was found to be 10% in the assay with Digitaria sanguinalis [16], 70% in the assay on Echinochloa crus-galli [17], 10% in the assay on Digitaria sanguinalis [18] and 80% in the assay with Sorghum bicolor [20]. In addition, the inhibition of growth at 50 ppm in the assay with Digitaria sanguinalis [4] came to 0%; with Digitaria sanguinalis [5], 0%; in the assay with Chenopodium ficifolium [6], 10%; with Amaranthus retroflexus [7], 0%; in the assay on Chenopodium ficifolium [8] it was 10%; in the assay on Echinochloa crus-galli [9], 60%. In addition, the inhibition of growth at 50 ppm in the assay with Echinochloa crus-galli [11] was 80%; in the assay with Sorghum bicolor [12] it was 60%; in the assay with Amaranthus retroflexus [14], 0%; with Sorghum bicolor [19], 60%.

Regarding `Cc1cc(O)n2s/c(=N\C(=O)[C@H](c3ccc(Cl)cc3)C(C)C)nc2n1`, the inhibition of growth at 100 ppm was found to be 80% in the assay on Chenopodium ficifolium [1]; 30% in the assay with Sorghum bicolor [2]; 90% in the assay with Amaranthus retroflexus [3]; 100% with Chenopodium ficifolium [10]; 95% with Amaranthus retroflexus [13]; 80% with Echinochloa crus-galli [15]. The inhibition of growth at 100 ppm in the assay on Digitaria sanguinalis [16] turned out to be 25%; in the assay on Echinochloa crus-galli [17], 40%; in the assay on Digitaria sanguinalis [18] it was 10%; in the assay with Sorghum bicolor [20], 40%. Also, the inhibition of growth at 50 ppm in the assay on Digitaria sanguinalis [4] turned out to be 20%; in the assay on Digitaria sanguinalis [5], 10%; with Chenopodium ficifolium [6], 70%; with Amaranthus retroflexus [7], 60%; in the assay with Chenopodium ficifolium [8] it was 50%; in the assay with Echinochloa crus-galli [9] it was 30%. In addition, the inhibition of growth at 50 ppm in the assay on Echinochloa crus-galli [11] was determined as 70%; in the assay with Sorghum bicolor [12], 35%; with Amaranthus retroflexus [14], 50%; with Sorghum bicolor [19], 30%.

In the case of `Cc1cc(Cl)n2s/c(=N\C(=O)[C@H](c3ccc(Cl)cc3)C(C)C)nc2n1`, the inhibition of growth at 100 ppm with Chenopodium ficifolium [1] worked out at 90%; in the assay with Sorghum bicolor [2], 40%; in the assay on Amaranthus retroflexus [3] it was 100%; with Chenopodium ficifolium [10], 85%; with Amaranthus retroflexus [13] it was 100%; with Echinochloa crus-galli [15], 90%. The inhibition of growth at 100 ppm in the assay with Digitaria sanguinalis [16] is 40%; with Echinochloa crus-galli [17] it was 30%; in the assay on Digitaria sanguinalis [18], 30%; in the assay on Sorghum bicolor [20], 20%. Moreover, the inhibition of growth at 50 ppm in the assay with Digitaria sanguinalis [4] was 30%; in the assay on Digitaria sanguinalis [5], 30%; with Chenopodium ficifolium [6], 80%; in the assay on Amaranthus retroflexus [7], 90%; with Chenopodium ficifolium [8] it was 80%; in the assay on Echinochloa crus-galli [9], 10%. Further, the inhibition of growth at 50 ppm with Echinochloa crus-galli [11] amounted to 70%; with Sorghum bicolor [12], 10%; in the assay on Amaranthus retroflexus [14], 85%; in the assay on Sorghum bicolor [19] it was 20%.

Take `Cc1cc(C)n2s/c(=N\C(=O)C(c3ccc(Cl)cc3)C(C)C)nc2n1` (racemic): the inhibition of growth at 100 ppm with Chenopodium ficifolium [1] worked out at 60%; in the assay on Sorghum bicolor [2] it was 0%; with Amaranthus retroflexus [3] it was 50%; with Chenopodium ficifolium [10] it was 70%; with Amaranthus retroflexus [13], 20%; in the assay with Echinochloa crus-galli [15] it was 10%. The inhibition of growth at 100 ppm was 70% in the assay with Digitaria sanguinalis [16], 25% in the assay on Echinochloa crus-galli [17], 60% in the assay with Digitaria sanguinalis [18] and 10% with Sorghum bicolor [20]. Moreover, the inhibition of growth at 50 ppm with Digitaria sanguinalis [4] stood at 30%; with Digitaria sanguinalis [5], 40%; with Chenopodium ficifolium [6] it was 40%; in the assay with Amaranthus retroflexus [7], 10%; in the assay with Chenopodium ficifolium [8], 35%; in the assay with Echinochloa crus-galli [9], 20%. Besides, the inhibition of growth at 50 ppm with Echinochloa crus-galli [11] stood at 0%; in the assay on Sorghum bicolor [12], 0%; in the assay with Amaranthus retroflexus [14], 20%; in the assay on Sorghum bicolor [19], 0%.

As to `COc1cc(OC)n2s/c(=N\C(=O)C(c3ccc(Cl)cc3)C(C)C)nc2n1` (racemic), the inhibition of growth at 100 ppm in the assay with Chenopodium ficifolium [1] was 50%; with Sorghum bicolor [2], 0%; in the assay on Amaranthus retroflexus [3], 45%; with Chenopodium ficifolium [10] it was 50%; with Amaranthus retroflexus [13], 30%; in the assay on Echinochloa crus-galli [15], 0%. Further, the inhibition of growth at 100 ppm in the assay with Digitaria sanguinalis [16] turned out to be 60%; with Echinochloa crus-galli [17] it was 30%; with Digitaria sanguinalis [18], 60%; with Sorghum bicolor [20] it was 20%. In addition, the inhibition of growth at 50 ppm in the assay with Digitaria sanguinalis [4] stood at 30%; in the assay on Digitaria sanguinalis [5], 35%; in the assay with Chenopodium ficifolium [6], 20%; in the assay with Amaranthus retroflexus [7] it was 30%; in the assay on Chenopodium ficifolium [8] it was 20%; in the assay on Echinochloa crus-galli [9], 30%. Further, the inhibition of growth at 50 ppm in the assay on Echinochloa crus-galli [11] worked out at 0%; in the assay with Sorghum bicolor [12], 10%; in the assay with Amaranthus retroflexus [14], 20%; with Sorghum bicolor [19], 0%.
